This passage reports binding results from publication PMC5838219 (2018).

The structures appear in SMILES notation.

The test system of assay [1] is dGsw^121,caged (RNA, riboswitch, (S)-NPE photocage at C4 position of nucleobases of U108, U110 and U112) AAUGAAUAUAAAAGAAACUUAUACAGGGUAGCAUAAUGGGCUACUGACCCCGCCUUCAAACCUAUUUGGAGACUAUAAGUGAAAAACCACUCUUUAAUUAUUAAAGUUUCUUUUUAUGUC
The assay can be described thus: NMR (1H,15N-TROSY, imino protons). The conditions noted are these: 50 mM KCl, 25 mM K phosphate, 6 eq. Mg2+; pH 6.2, 298 K; 100 µM RNA, 2 eq. ligand; before photolysis.

The test system of assay [2] is dGsw^121 (RNA, riboswitch) AAUGAAUAUAAAAGAAACUUAUACAGGGUAGCAUAAUGGGCUACUGACCCCGCCUUCAAACCUAUUUGGAGACUAUAAGUGAAAAACCACUCUUUAAUUAUUAAAGUUUCUUUUUAUGUC
The assay can be described thus: NMR (1H,15N-TROSY, imino protons). As to conditions: 50 mM KCl, 25 mM K phosphate, 6 eq. Mg2+; pH 6.2, 298 K; 100 µM RNA, 2 eq. ligand; after photolysis; antiterminator folds only to ~80%.

Turning to `Nc1nc2c(ncn2[C@H]2C[C@H](O)[C@@H](CO)O2)c(=O)[nH]1`, the binding entry in assay [1] and in assay [2] was “yes” each time.
